The assay deals with T1, PAK4 (Homo sapiens, UniProt O96013).
T1 construct: kinase domain
Put plainly: Z'-LYTE FRET peptide kinase assay with recombinant enzyme. The class given is biochemical.

For orientation: Ki means a measure of affinity in units of concentration, obtained from inhibition or displacement.

T1 sequence (O96013 291-591 limits assumed): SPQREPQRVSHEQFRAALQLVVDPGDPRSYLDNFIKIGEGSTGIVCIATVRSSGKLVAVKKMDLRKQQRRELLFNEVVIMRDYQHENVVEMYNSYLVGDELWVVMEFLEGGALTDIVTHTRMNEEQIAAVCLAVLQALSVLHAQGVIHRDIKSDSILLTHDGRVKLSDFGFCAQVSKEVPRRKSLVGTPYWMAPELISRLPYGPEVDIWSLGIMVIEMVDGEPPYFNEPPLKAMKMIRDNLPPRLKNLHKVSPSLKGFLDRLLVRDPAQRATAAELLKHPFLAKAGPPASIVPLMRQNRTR

Regarding `CCn1c(=O)c(-c2ccc(-c3cncc(C)n3)cc2Cl)cc2cnc(NCCC3CCN(C)CC3)nc21` [FRAX1036], the inhibition constant Ki was found to be 2400 nM.
